Assay: Henry solubility constant Hcp at 298.15 K (mol/(m3 Pa))
Conditions: reference: Destaillats and Charles (2002)

Row | SMILES | Henry solubility constant Hcp
1 | CCCCCCCCC/C=N/OCc1c(F)c(F)c(F)c(F)c1F [PFBHA-decanal] | 0.024
2 | c1ccc(-c2ccccc2)cc1 [biphenyl] | 0.034
3 | Cc1ccccc1 [methylbenzene] | 0.002
4 | Fc1c(F)c(F)c(CO/N=C/c2ccccc2)c(F)c1F [PFBHA-benzaldehyde] | 0.005
5 | CC/C(C)=N\OCc1c(F)c(F)c(F)c(F)c1F [PFBHA-butanone] | 0.0047
6 | C/C=C/C=N/OCc1c(F)c(F)c(F)c(F)c1F [PFBHA-crotonaldehyde] | 0.0068

The remaining lines, values ahead:

Row | Henry solubility constant Hcp | SMILES
7 | 0.016 | Fc1c(F)c(F)c(CON=CC=NOCc2c(F)c(F)c(F)c(F)c2F)c(F)c1F [PFBHA-ethanedial]
8 | 0.024 | c1ccc2ccccc2c1 [naphthalene]
9 | 0.0058 | CCCCC/C=N/OCc1c(F)c(F)c(F)c(F)c1F [PFBHA-hexanal]
10 | 0.0095 | C=C/C=N/OCc1c(F)c(F)c(F)c(F)c1F [PFBHA-propenal]
11 | 0.016 | C=NOCc1c(F)c(F)c(F)c(F)c1F [PFBHA-methanal]
12 | 0.011 | CC(C)=NOCc1c(F)c(F)c(F)c(F)c1F [PFBHA-propanone]
13 | 0.0079 | CCCCCCC/C=N/OCc1c(F)c(F)c(F)c(F)c1F [PFBHA-octanal]
14 | 0.019 | CC=NOCc1c(F)c(F)c(F)c(F)c1F [PFBHA-ethanal]

From Sander's compilation of Henry's law constants (doi:10.1021/je025545i)
